According to ChEMBL document CHEMBL1158401, “Development of CoMFA and CoMSIA models of affinity and selectivity for indole ligands of cannabinoid CB1 and CB2 receptors” (Eur J Med Chem, 2009):
pKi: −log10 of the molar value.

Tests used:
[1] = Selectivity ratio of pKi for CB1 receptor in rat brain to pKi for human cloned CB2 receptor; assay type: tissue-based
[2] = Selectivity ratio of pKi for human cloned CB2 receptor to pKi for CB1 receptor in rat brain; assay type: tissue-based
[3] = target: Cannabinoid receptor 1 (Rattus norvegicus, UniProt P20272); test: Displacement of [3H]CP-55940 from CB1 receptor in rat brain by filtration assay; assay type: tissue-based
[4] = target: Cannabinoid receptor 2 (Homo sapiens, UniProt P34972); test: Displacement of [3H]CP-55940 from human cloned CB2 receptor by filtration assay
Cannabinoid receptor 2, sequence (P34972 whole entry): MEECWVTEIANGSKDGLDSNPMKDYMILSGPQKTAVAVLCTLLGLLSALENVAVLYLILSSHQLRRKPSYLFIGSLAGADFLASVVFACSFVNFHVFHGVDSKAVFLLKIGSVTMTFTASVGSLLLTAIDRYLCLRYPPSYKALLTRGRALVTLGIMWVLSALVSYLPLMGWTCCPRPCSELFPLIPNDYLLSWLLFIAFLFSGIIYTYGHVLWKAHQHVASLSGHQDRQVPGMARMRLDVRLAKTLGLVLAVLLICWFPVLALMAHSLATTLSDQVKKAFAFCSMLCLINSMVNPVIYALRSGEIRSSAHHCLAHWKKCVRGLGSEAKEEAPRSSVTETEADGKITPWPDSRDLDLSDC

Cannabinoid receptor 1, sequence (P20272 whole entry): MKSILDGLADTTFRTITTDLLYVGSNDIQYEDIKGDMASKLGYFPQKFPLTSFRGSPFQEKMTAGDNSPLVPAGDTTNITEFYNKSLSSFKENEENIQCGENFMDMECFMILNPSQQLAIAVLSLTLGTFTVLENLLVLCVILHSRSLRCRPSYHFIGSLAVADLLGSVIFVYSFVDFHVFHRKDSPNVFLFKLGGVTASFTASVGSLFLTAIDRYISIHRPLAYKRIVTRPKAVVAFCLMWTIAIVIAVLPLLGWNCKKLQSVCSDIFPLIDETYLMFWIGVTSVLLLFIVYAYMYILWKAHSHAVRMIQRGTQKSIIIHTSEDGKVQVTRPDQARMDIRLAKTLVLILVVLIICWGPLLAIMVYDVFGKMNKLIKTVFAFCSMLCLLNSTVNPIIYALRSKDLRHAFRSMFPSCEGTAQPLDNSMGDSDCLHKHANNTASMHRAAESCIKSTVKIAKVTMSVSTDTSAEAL

| SMILES | Ratio pKi [1] | Ratio pKi [2] | pKi [3] | pKi [4] |
| --- | --- | --- | --- | --- |
| CCCCCn1c(C)c(C(=O)Cc2cccc(Cl)c2)c2ccccc21 | 1.01 | 0.989 |  |  |
| CCCCc1ccc(C(=O)c2cn(CCC)c3ccccc23)c2ccccc12 | 0.888 | 1.13 |  |  |
| CCCCCn1cc(C(=O)c2ccc(OCC)c3ccccc23)c2ccccc21 | 1.04 | 0.957 |  |  |
| CCCCCn1cc(C(=O)Cc2ccccc2Cl)c2ccccc21 | 0.993 | 1.01 |  |  |
| CCCn1cc(C(=O)c2cccc3cc(OC)ccc23)c2ccccc21 | 0.82 | 1.22 |  |  |
| CCCc1ccc(C(=O)c2c(C)n(CCC)c3ccccc23)c2ccccc12 | 0.919 | 1.09 |  |  |
| CCCn1cc(C(=O)c2cccc3ccccc23)c2ccccc21 | 0.883 | 1.13 | 5.98 | 6.77 |
| CCCn1c(C)c(C(=O)c2cccc3ccc(OC)cc23)c2ccccc21 | 0.913 | 1.09 |  |  |
| CCCCCn1cc(C(=O)c2c(OC)ccc3ccccc23)c2ccccc21 | 0.788 | 1.27 |  |  |
| CCCCCn1c(C)c(C(=O)c2cccc3cc(OC)ccc23)c2ccccc21 | 0.83 | 1.21 |  |  |
| CCCCCn1cc(C(=O)c2cccc3ccccc23)c2ccccc21 | 0.942 | 1.06 | 8.04 | 8.54 |
| CCCCCn1c(C)c(C(=O)c2cccc3ccc(CC)cc23)c2ccccc21 | 0.915 | 1.09 |  |  |
| CCCCCn1c(C)c(C(=O)c2ccc(CC)c3ccccc23)c2ccccc21 | 0.941 | 1.06 |  |  |
| CCCCCn1cc(C(=O)Cc2ccccc2C)c2ccccc21 | 1.1 | 0.906 |  |  |
| CCCCCn1cc(C(=O)c2ccc(CCC)c3ccccc23)c2ccccc21 | 1.02 | 0.975 |  |  |
| CCCCCn1c(C)c(C(=O)Cc2ccc(Cl)cc2)c2ccccc21 | 1.07 | 0.936 |  |  |
| CCCn1c(C)c(C(=O)c2ccc(C)c3ccccc23)c2ccccc21 | 0.88 | 1.14 |  |  |
| CCCCCn1cc(C(=O)c2ccc(C)c3ccccc23)c2ccccc21 | 1.03 | 0.973 | 9.16 |  |
| CCCc1ccc(C(=O)c2cn(CCC)c3ccccc23)c2ccccc12 | 0.946 | 1.06 |  |  |
| CCCCc1ccc(C(=O)c2c(C)n(CCC)c3ccccc23)c2ccccc12 | 0.935 | 1.07 |  |  |
| CCCCCn1cc(C(=O)Cc2ccc(Br)cc2)c2ccccc21 | 0.969 |  |  |  |
| CCCn1cc(C(=O)c2c(OC)ccc3ccccc23)c2ccccc21 | 0.764 | 1.31 |  |  |
| CCCCCn1cc(C(=O)Cc2ccc(OC)cc2)c2ccccc21 | 0.94 | 1.06 |  |  |
| CCCn1cc(C(=O)c2cccc3ccc(CC)cc23)c2ccccc21 | 0.936 | 1.07 |  |  |

| SMILES | Ratio pKi [1] | Ratio pKi [2] | pKi [3] | pKi [4] |
| --- | --- | --- | --- | --- |
| CCCCCn1c(C)c(C(=O)c2ccc(OCC)c3ccccc23)c2ccccc21 | 0.991 | 1.01 |  |  |
| CCCCCn1c(C)c(C(=O)Cc2ccccc2F)c2ccccc21 | 1.04 | 0.96 |  |  |
| CCCCCn1cc(C(=O)Cc2ccccc2F)c2ccccc21 | 1.03 | 0.969 |  |  |
| CCCCCn1c(C)c(C(=O)c2ccc(C)c3ccccc23)c2ccccc21 | 0.909 | 1.1 | 8.30 |  |
| CCCCCn1cc(C(=O)Cc2ccccc2)c2ccccc21 | 1.04 | 0.964 |  |  |
| CCCCCn1c(C)c(C(=O)Cc2cccc(OC)c2)c2ccccc21 | 1.02 | 0.981 |  |  |
| CCCn1cc(C(=O)c2ccc(OCC)c3ccccc23)c2ccccc21 | 0.934 | 1.07 |  |  |
| CCCn1c(C)c(C(=O)c2ccc(OCC)c3ccccc23)c2ccccc21 | 0.919 | 1.09 |  |  |
| CCCn1c(C)c(C(=O)c2cccc3ccc(C)cc23)c2ccccc21 | 0.829 | 1.21 | 6.46 | 7.80 |
| CCCn1cc(C(=O)c2ccc(OC)c3ccccc23)c2ccccc21 | 0.961 | 1.04 | 7.20 | 7.50 |
| CCCCCn1cc(C(=O)Cc2ccccc2Br)c2ccccc21 | 1.05 | 0.953 |  |  |
| CCCCCn1c(C)c(C(=O)c2cccc3ccccc23)c2ccccc21 | 0.94 | 1.06 | 8.02 | 8.54 |
| CCCCCn1cc(C(=O)c2cccc3ccc(OC)cc23)c2ccccc21 | 1 | 0.997 |  |  |
| CCCCCn1c(C)c(C(=O)c2ccc(CCC)c3ccccc23)c2ccccc21 | 0.965 | 1.04 |  |  |
| CCCCCn1cc(C(=O)Cc2cccc(F)c2)c2ccccc21 | 1.01 | 0.985 |  |  |
| CCCCCn1cc(C(=O)c2cccc3cc(OC)ccc23)c2ccccc21 | 0.843 | 1.19 |  |  |
| CCCn1c(C)c(C(=O)c2cccc3ccc(CC)cc23)c2ccccc21 | 0.887 | 1.13 |  |  |
| CCCCCn1cc(C(=O)Cc2cccc(OC)c2)c2ccccc21 | 1.1 | 0.907 |  |  |
| CCCCCn1cc(C(=O)c2ccc(CC)c3ccccc23)c2ccccc21 | 1.02 | 0.981 |  |  |
| CCCn1cc(C(=O)c2cccc3ccc(C)cc23)c2ccccc21 | 0.956 | 1.04 |  |  |
| CCCCCn1cc(C(=O)Cc2ccc(C)cc2)c2ccccc21 | 1.08 | 0.925 |  |  |
| CCCn1c(C)c(C(=O)c2ccc(OC)c3ccccc23)c2ccccc21 | 0.901 | 1.11 | 6.32 | 7.01 |
| CCCCCn1c(C)c(C(=O)Cc2ccccc2Cl)c2ccccc21 | 1.04 | 0.963 |  |  |
| CCCCCn1cc(C(=O)Cc2cccc(Cl)c2)c2ccccc21 | 1.06 | 0.939 |  |  |

| SMILES | Ratio pKi [1] | Ratio pKi [2] | pKi [3] | pKi [4] |
| --- | --- | --- | --- | --- |
| CCCCCn1c(C)c(C(=O)Cc2cccc(F)c2)c2ccccc21 | 0.945 | 1.06 |  |  |
| CCCCCn1c(C)c(C(=O)c2cccc3ccc(OC)cc23)c2ccccc21 | 0.92 | 1.09 |  |  |
| CCCCCn1c(C)c(C(=O)Cc2ccc(C)cc2)c2ccccc21 | 1.04 | 0.957 |  |  |
| CCCn1cc(C(=O)c2ccc(C)c3ccccc23)c2ccccc21 | 0.728 | 1.37 |  |  |
| CCCCCn1cc(C(=O)c2ccc(CCCC)c3ccccc23)c2ccccc21 | 0.964 | 1.04 |  |  |
| CCCCCn1cc(C(=O)Cc2ccc(F)cc2)c2ccccc21 | 0.99 | 1.01 |  |  |
| CCCCCn1c(C)c(C(=O)c2c(OC)ccc3ccccc23)c2ccccc21 | 0.792 | 1.26 |  |  |
| CCCCCn1c(C)c(C(=O)c2ccc(CCCC)c3ccccc23)c2ccccc21 | 0.901 | 1.11 |  |  |
| CCCCCn1c(C)c(C(=O)c2ccc(OC)c3ccccc23)c2ccccc21 | 0.957 | 1.04 | 8.35 | 8.72 |
| CCCCCn1c(C)c(C(=O)Cc2ccc(OC)cc2)c2ccccc21 | 0.933 | 1.07 |  |  |
| CCCCCn1c(C)c(C(=O)Cc2ccccc2C)c2ccccc21 | 0.989 | 1.01 |  |  |
| CCCCCn1cc(C(=O)c2cccc3ccc(CC)cc23)c2ccccc21 | 0.959 | 1.04 |  |  |
| CCCCCn1c(C)c(C(=O)Cc2ccccc2OC)c2ccccc21 | 1.07 | 0.932 |  |  |
| CCCCCn1c(C)c(C(=O)c2cccc3ccc(C)cc23)c2ccccc21 | 0.856 | 1.17 | 7.97 | 9.31 |
| CCCCCn1cc(C(=O)Cc2ccc(Cl)cc2)c2ccccc21 | 1.02 | 0.983 |  |  |
| CCCCCn1cc(C(=O)c2ccc(OC)c3ccccc23)c2ccccc21 | 1.13 | 0.886 | 8.92 | 7.91 |
| CCCn1cc(C(=O)c2ccc(CC)c3ccccc23)c2ccccc21 | 0.935 | 1.07 |  |  |
| CCCn1c(C)c(C(=O)c2ccc(CC)c3ccccc23)c2ccccc21 | 0.903 | 1.11 |  |  |
| CCCCCn1c(C)c(C(=O)Cc2ccccc2)c2ccccc21 | 1.02 | 0.976 |  |  |
| CCCn1cc(C(=O)c2cccc3ccc(OC)cc23)c2ccccc21 | 0.936 | 1.07 |  |  |
| CCCCCn1cc(C(=O)Cc2ccccc2OC)c2ccccc21 | 1.06 | 0.94 |  |  |
| CCCCCn1c(C)c(C(=O)Cc2ccccc2Br)c2ccccc21 | 1.04 | 0.963 |  |  |
